Experimental data: US20050112573A1, “Method of detecting toxic substance” (priority 2001, published 2005)

Test system: yeast genes (level of expressed mRNA)
Assay: DNA chip analysis of expressed mRNA of yeast genes after 2 h culture with a toxic chemical substance
Format: cell-based, Saccharomyces cerevisiae S288C
Experimental: Yeast (Saccharomyces cerevtisiae S288C (α SUC2mal mel gap2 CUP1)) were cultured at 25° C. on YPD medium (yeast extract 1%, polypepton 2%, glucose 2%). One of toxic chemical substances was added to the cell at logarithmic growth phase, and the cell was further cultured for two hours. Cell was cultured without any chemical substance in the same condition, and was used as control. Concentrations of the chemical substances were defined to inhibit the growth of the yeast but not lead to death.
After the completion of cultivation, the culture was centrifuged to collect the cells. To the cells, sodium acetate buffer (50 mM sodium acetate, 10 mM EDTA, 1% SDS) was added, and the mixture was shaken at 65° C. for five minutes, followed by returning to room temperature, and obtaining the supernatant, which procedure was repeated two times. To the supernatant, ½ amount of a solution of phenol/chloroform was added, and the mixture was centrifuged to give a supernatant, which was added with an equal amount of chloroform, and the mixture was centrifuged to give a supernatant. To the supernatant, an equal amount of isopropanol containing 0.3 M sodium acetate was added, and the mixture was allowed to stand at room temperature for 30 minutes, after which the mixture was centrifuged to give a sediment of the whole RNAs. Seventy % ethanol was added to the sediment, and the mixture was again centrifuged to give a sediment, which was then dried and dissolved in water. mRNA was isolated from the whole RNAs as followings. In view of the fact that a poly A chain is attached to the 3′ terminus of mRNA, a polynucleotide having a poly T structure which was immobilized on the surface of latex beads was used to trap the mRNA, and then the mRNA was washed and eluted with spine column (Oligotex-dT30<Super>mRNA Purification Kit, Takara). Reverse transcription of the mRNA was conducted with a reverse transcriptase (Super Script II Reverse Transcriptase; catalogue No. 18064-014, GibcoBRL) using fluorescence-labeled nucleotides to give cDNAs that were introduced with Cy3-dUTP or Cy5-dUTP during the reverse transcription.
The labeled cDNAs were dissolved in TE buffer (10 mM Tris-HCl/1 mM EDTA, pH8.0), and the solution was dropped on the DNA chip containing the whole genes of yeast (DNA Chip Research Inc. Japan) so that the cDNAs were hybridized on the DNA chip at 65° C. for over 12 hours. The fluoresces intensity of the DNA chip was read with a scanner, and the ratio relative to the fluorescence intensity resulting from the absence of chemical substance was estimated as the following, which is shown in Tables 1 to 9: [formula]
In the Tables, “Intensity” indicated in the rightmost column is a value of the level of expressed mRNA of each gene in control cells as divided by the average level of the expressions of the whole genes.

Question: For `COc1cc(CNC(=O)CCCCC=CC(C)C)ccc1O` [(12), 8-methyl-N-vanillyl-6-nonenamide], which “The level of expressed mRNA in the presence of chemical substance/absence: YDR133C” value (gene YDR133C) is on record?
Answer: Its value is 0.3.

Question: What about the “The level of expressed mRNA in the presence of chemical substance/absence: YDR140W” value (gene YDR140W) of the same compound?
Answer: The value was 1.1.

Question: And the “The level of expressed mRNA in the presence of chemical substance/absence: YDR221W” value (gene YDR221W)?
Answer: The value was 0.6.

Question: What about the “The level of expressed mRNA in the presence of chemical substance/absence: YDR250C” value (gene YDR250C) of the same compound?
Answer: The value was 0.8.

Question: And the “The level of expressed mRNA in the presence of chemical substance/absence: YDR271C” value (gene YDR271C)?
Answer: The value was 0.7.

Question: And the “The level of expressed mRNA in the presence of chemical substance/absence: YDR278C” value (gene YDR278C)?
Answer: The value was 0.6.

Question: And the “The level of expressed mRNA in the presence of chemical substance/absence: YDR281C” value (gene YDR281C)?
Answer: Its value is 0.9.

Question: And the “The level of expressed mRNA in the presence of chemical substance/absence: YDR316W” value (gene YDR316W)?
Answer: Its value is 0.6.

Question: What about the “The level of expressed mRNA in the presence of chemical substance/absence: YDR338C” value (gene YDR338C) of the same compound?
Answer: Its value is 0.8.

Question: And the “The level of expressed mRNA in the presence of chemical substance/absence: YDR366C” value (gene YDR366C)?
Answer: Its value is 0.6.

Question: What about the “level of expressed mRNA in the presence of chemical substance/in its absence” value (from here on “level … of chemical substance/in its absence”) (gene YDR380W) of the same compound?
Answer: The value was 0.4.

Question: What about the “level … of chemical substance/in its absence” value (gene YDR410C) of the same compound?
Answer: Its value is 0.9.

Question: And the “The level of expressed mRNA in the presence of chemical substance/absence: YDR421W” value (gene YDR421W)?
Answer: Its value is 0.7.

Question: And the “The level of expressed mRNA in the presence of chemical substance/absence: YDR425W” value (gene YDR425W)?
Answer: Its value is 1.1.

Question: What about the “The level of expressed mRNA in the presence of chemical substance/absence: YDR485C” value (gene YDR485C) of the same compound?
Answer: Its value is 0.9.

Question: And the “level … of chemical substance/in its absence” value (gene YDR487C)?
Answer: Its value is 1.3.

Question: What about the “level … of chemical substance/in its absence” value (gene YDR502C) of the same compound?
Answer: The value was 1.3.

Question: And the “The level of expressed mRNA in the presence of chemical substance/absence: YDR504C” value (gene YDR504C)?
Answer: The value was 0.7.

Question: And the “level … of chemical substance/in its absence” value (gene YEL011W)?
Answer: The value was 1.5.

Question: What about the “level … of chemical substance/in its absence” value (gene YEL020C) of the same compound?
Answer: Its value is 0.8.

Question: What about the “The level of expressed mRNA in the presence of chemical substance/absence: YEL044W” value (gene YEL044W) of the same compound?
Answer: The value was 0.6.

Question: And the “level … of chemical substance/in its absence” value (gene YER026C)?
Answer: Its value is 1.7.

Question: What about the “level … of chemical substance/in its absence” value (gene YER069W) of the same compound?
Answer: The value was 0.8.

Question: And the “The level of expressed mRNA in the presence of chemical substance/absence: YER092W” value (gene YER092W)?
Answer: The value was 0.9.

Question: What about the “The level of expressed mRNA in the presence of chemical substance/absence: YER182W” value (gene YER182W) of the same compound?
Answer: Its value is 1.0.

Question: And the “The level of expressed mRNA in the presence of chemical substance/absence: YFL042C” value (gene YFL042C)?
Answer: The value was 0.9.

Question: And the “level … of chemical substance/in its absence” value (gene YFR015C)?
Answer: Its value is 0.4.

Question: What about the “The level of expressed mRNA in the presence of chemical substance/absence: YFR026C” value (gene YFR026C) of the same compound?
Answer: Its value is 0.6.

Question: And the “The level of expressed mRNA in the presence of chemical substance/absence: YFR056C” value (gene YFR056C)?
Answer: The value was 0.5.

Question: And the “level … of chemical substance/in its absence” value (gene YGL001C)?
Answer: Its value is 0.9.

Question: And the “level … of chemical substance/in its absence” value (gene YGL022W)?
Answer: The value was 0.7.

Question: And the “level … of chemical substance/in its absence” value (gene YGL039W)?
Answer: Its value is 1.3.

Question: And the “The level of expressed mRNA in the presence of chemical substance/absence: YGL041C” value (gene YGL041C)?
Answer: Its value is 0.6.

Question: What about the “The level of expressed mRNA in the presence of chemical substance/absence: YGL045W” value (gene YGL045W) of the same compound?
Answer: The value was 1.1.

Question: And the “The level of expressed mRNA in the presence of chemical substance/absence: YGL057C” value (gene YGL057C)?
Answer: Its value is 1.1.

Question: What about the “The level of expressed mRNA in the presence of chemical substance/absence: YGL088W” value (gene YGL088W) of the same compound?
Answer: Its value is 0.6.

Question: And the “level … of chemical substance/in its absence” value (gene YGL104C)?
Answer: The value was 1.1.

Question: What about the “level … of chemical substance/in its absence” value (gene YGL126W) of the same compound?
Answer: Its value is 0.6.

Question: What about the “level … of chemical substance/in its absence” value (gene YGL134W) of the same compound?
Answer: The value was 0.9.

Question: And the “level … of chemical substance/in its absence” value (gene YGL154C)?
Answer: Its value is 0.9.

Question: What about the “The level of expressed mRNA in the presence of chemical substance/absence: YGL183C” value (gene YGL183C) of the same compound?
Answer: Its value is 0.9.

Question: What about the “level … of chemical substance/in its absence” value (gene YGL209W) of the same compound?
Answer: The value was 1.3.

Question: What about the “The level of expressed mRNA in the presence of chemical substance/absence: YGL223C” value (gene YGL223C) of the same compound?
Answer: The value was 0.9.

Question: What about the “level … of chemical substance/in its absence” value (gene YGL253W) of the same compound?
Answer: Its value is 1.2.

Question: And the “The level of expressed mRNA in the presence of chemical substance/absence: YGR038W” value (gene YGR038W)?
Answer: The value was 1.0.

Question: And the “level … of chemical substance/in its absence” value (gene YGR060W)?
Answer: The value was 1.0.

Question: And the “The level of expressed mRNA in the presence of chemical substance/absence: YGR139W” value (gene YGR139W)?
Answer: Its value is 0.5.

Question: What about the “The level of expressed mRNA in the presence of chemical substance/absence: YGR156W” value (gene YGR156W) of the same compound?
Answer: Its value is 1.2.

Question: What about the “The level of expressed mRNA in the presence of chemical substance/absence: YGR198W” value (gene YGR198W) of the same compound?
Answer: Its value is 0.7.

Question: And the “The level of expressed mRNA in the presence of chemical substance/absence: YGR210C” value (gene YGR210C)?
Answer: Its value is 0.6.

Question: What about the “The level of expressed mRNA in the presence of chemical substance/absence: YGR211W” value (gene YGR211W) of the same compound?
Answer: The value was 0.6.

Question: What about the “The level of expressed mRNA in the presence of chemical substance/absence: YGR237C” value (gene YGR237C) of the same compound?
Answer: The value was 0.8.

Question: What about the “The level of expressed mRNA in the presence of chemical substance/absence: YGR243W” value (gene YGR243W) of the same compound?
Answer: Its value is 1.2.

Question: And the “The level of expressed mRNA in the presence of chemical substance/absence: YGR250C” value (gene YGR250C)?
Answer: The value was 0.6.

Question: And the “The level of expressed mRNA in the presence of chemical substance/absence: YGR266W” value (gene YGR266W)?
Answer: The value was 0.6.

Question: What about the “The level of expressed mRNA in the presence of chemical substance/absence: YGR277C” value (gene YGR277C) of the same compound?
Answer: The value was 0.9.

Question: And the “level … of chemical substance/in its absence” value (gene YGR282C)?
Answer: The value was 1.3.

Question: What about the “The level of expressed mRNA in the presence of chemical substance/absence: YGR293C” value (gene YGR293C) of the same compound?
Answer: Its value is 1.0.
